Laboratory results from article PMC5727211, “Development of Erasin: a chromone-based STAT3 inhibitor which induces apoptosis in Erlotinib-resistant lung cancer cells” (Scientific Reports, 2017).
Entries after “also recorded” stand apart in the source; their conditions may differ. Like-named read-outs stand apart in the source and are kept apart here.

Legend:
STAT3 SH2 domain = STAT3 SH2 domain (Homo sapiens, UniProt P40763); assay: FP-based competitive binding assay, STAT3 SH2 domain
Procedure: (§1) The STAT family display a high degree of homology. […] Vilsmeyer-Haack formylation of 2-hydroxy acetophenones led to 3-formyl chromones, which were subsequently converted to the acyl hydrazones by reaction with hydrazides (Fig. 1). The target molecules were tested for their abilities to inhibit binding of fluorophore-labeled peptides to the SH2 domains of STAT1[24], STAT3[25], and STAT5b[26] in assays based on fluorescence polarization (FP). The more distantly related SH2 domain of the tyrosine kinase Lck served as additional specificity control[27],[28].
Assays were performed essentially as described. In brief, protein was incubated with the test compounds for 1 h at room temperature at the following protein concentrations: STAT1: 400 nM, STAT3: 210 nM, STAT5b: 300 nM, Lck SH2: 35 nM. Subsequently, the corresponding fluorophore-labeled peptide was added: STAT1: (5-carboxyfluorescein)-GpYDKPHVL-OH, derived from the interferon-γ receptor[24]; STAT3: (5-carboxyfluorescein)-GpYLPQTV-NH2, derived from the gp130 subunit of the IL-6 receptor[25]; STAT5b: (5-carboxyfluorescein)-GpYLVLDKW-OH, derived from the erythropoietin receptor[26]; Lck SH2: (5-carboxyfluorescein)-GpYEEIP-OH, derived from the middle-T antigen. After a further hour of incubation, fluorescence polarization was measured in a plate reader (Tecan Infinite F500). Apparent IC50 data shown in Tables 1, 2, and S1 and the inhibition curves shown in Fig. 2a correspond to this time point. The majority of the pipetting work was carried out using a Biomek FXp workstation (Beckman-Coulter). […]

parental HCC-827 cells = assay: Apoptosis assay (Annexin V/7-AAD flow cytometry), parental HCC-827 cells; assay type: cell-based, human; conditions: 24 h
Procedure: (§2) Afterwards, the cell culture supernatant from each well was collected. […] The supernatants were then returned to each well to neutralize the Accutase solution and the cells were centrifuged at 3000 rpm, at 4 °C for 5 min. The cell pellets were washed twice with cold PBS and centrifuged again. […] Cells were resuspended in 1 x binding buffer and incubated with PE Annexin V and 7-AAD at 4 °C for 30 min. Apoptosis was measured using an LSR II flow cytometer (BD Bioscience). Experiments were carried out in at least triplicate.

[1] = test system: Erlotinib-resistant HCC-827 cells; assay: Apoptosis assay (Annexin V/7-AAD flow cytometry), Erlotinib-resistant HCC-827 cells; assay type: cell-based, human; conditions: 24 h
Procedure: as §2, with “triplicate. […]” for “triplicate.”

STAT1 SH2 domain = biological target: T1, STAT1 SH2 domain (Homo sapiens, UniProt P42224); assay: FP-based competitive binding assay, STAT1 SH2 domain; conditions: mean ± s.d., three experiments
T1 sequence (P42224 1-750): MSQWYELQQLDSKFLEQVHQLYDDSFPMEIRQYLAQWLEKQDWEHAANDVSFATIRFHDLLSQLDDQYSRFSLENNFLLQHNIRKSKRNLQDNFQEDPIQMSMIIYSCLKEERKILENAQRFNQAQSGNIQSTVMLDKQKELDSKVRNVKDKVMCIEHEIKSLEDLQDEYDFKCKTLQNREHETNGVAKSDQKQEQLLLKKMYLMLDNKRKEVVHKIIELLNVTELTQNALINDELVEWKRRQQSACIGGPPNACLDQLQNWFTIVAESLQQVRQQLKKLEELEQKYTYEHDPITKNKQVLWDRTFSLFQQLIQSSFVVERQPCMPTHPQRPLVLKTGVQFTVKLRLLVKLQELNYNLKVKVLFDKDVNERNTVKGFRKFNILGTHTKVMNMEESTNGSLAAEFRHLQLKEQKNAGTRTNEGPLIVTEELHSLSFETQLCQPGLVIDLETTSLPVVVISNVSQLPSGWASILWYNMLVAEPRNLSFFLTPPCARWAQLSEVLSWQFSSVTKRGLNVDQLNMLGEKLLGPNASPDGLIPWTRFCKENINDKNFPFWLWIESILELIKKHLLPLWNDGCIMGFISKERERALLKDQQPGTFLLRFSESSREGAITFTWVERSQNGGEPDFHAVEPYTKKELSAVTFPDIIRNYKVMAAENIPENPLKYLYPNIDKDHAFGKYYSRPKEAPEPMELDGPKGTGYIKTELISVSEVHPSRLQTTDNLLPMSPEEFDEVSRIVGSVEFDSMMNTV
Procedure: as §1
Assays were performed essentially as described. In brief, protein was incubated with the test compounds for 1 h at room temperature at the following protein concentrations: STAT1: 400 nM, STAT3: 210 nM, STAT5b: 300 nM, Lck SH2: 35 nM. Subsequently, the corresponding fluorophore-labeled peptide was added: STAT1: (5-carboxyfluorescein)-GpYDKPHVL-OH, derived from the interferon-γ receptor[24]; STAT3: (5-carboxyfluorescein)-GpYLPQTV-NH2, derived from the gp130 subunit of the IL-6 receptor[25]; STAT5b: (5-carboxyfluorescein)-GpYLVLDKW-OH, derived from the erythropoietin receptor[26]; Lck SH2: (5-carboxyfluorescein)-GpYEEIP-OH, derived from the middle-T antigen. After a further hour of incubation, fluorescence polarization was measured in a plate reader (Tecan Infinite F500). Apparent IC50 data shown in Tables 1, 2, and S1 and the inhibition curves shown in Fig. 2a correspond to this time point. The majority of the pipetting work was carried out using a Biomek FXp workstation (Beckman-Coulter). Buffer composition: 10 mM Tris pH 8.0, 50 mM NaCl, 1 mM EDTA, 1 mM dithiothreitol (DTT), 0.1% Nonidet P-40, and 2% DMSO.

STAT3 SH2 domain, sequence (P40763 whole entry, the tested form may be a part): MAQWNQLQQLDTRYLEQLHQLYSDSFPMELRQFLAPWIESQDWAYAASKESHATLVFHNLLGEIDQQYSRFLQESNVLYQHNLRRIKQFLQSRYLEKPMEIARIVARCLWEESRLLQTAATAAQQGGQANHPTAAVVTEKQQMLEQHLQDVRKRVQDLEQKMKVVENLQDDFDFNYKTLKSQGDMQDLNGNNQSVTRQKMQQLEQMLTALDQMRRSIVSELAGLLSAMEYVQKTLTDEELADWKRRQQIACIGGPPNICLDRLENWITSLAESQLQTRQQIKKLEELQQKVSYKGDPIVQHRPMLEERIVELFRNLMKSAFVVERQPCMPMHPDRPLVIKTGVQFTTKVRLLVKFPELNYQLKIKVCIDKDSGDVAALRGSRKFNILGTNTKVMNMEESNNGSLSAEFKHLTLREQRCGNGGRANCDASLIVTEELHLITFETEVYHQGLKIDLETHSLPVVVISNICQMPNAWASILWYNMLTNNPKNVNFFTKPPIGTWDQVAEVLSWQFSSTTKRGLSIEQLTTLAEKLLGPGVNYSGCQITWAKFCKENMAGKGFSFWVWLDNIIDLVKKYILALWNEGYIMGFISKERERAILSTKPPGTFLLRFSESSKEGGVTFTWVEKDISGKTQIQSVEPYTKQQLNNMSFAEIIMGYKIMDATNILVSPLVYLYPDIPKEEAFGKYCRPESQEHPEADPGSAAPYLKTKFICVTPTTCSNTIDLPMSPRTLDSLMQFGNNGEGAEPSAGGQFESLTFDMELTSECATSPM

SMILES | IC50 (STAT3 SH2 domain; 1 h with protein, then 1 h with peptide, mean ± s.d., three experiments, read-out: STAT3 app. IC50) [µM] | effect of omission of DTT from assay buffer on inhibitory activity against STAT3 (STAT3 SH2 domain; 2 h of incubation, without DTT) | IC50 (STAT3 SH2 domain; after 9 h, read-out: apparent IC50 against wild-type STAT3 after 9 h) [µM] | increase in rate of apoptosis relative to DMSO control (parental HCC-827 cells) | increase in rate of apoptosis relative to DMSO control [1] | IC50 (STAT1 SH2 domain; 1 h with protein, then 1 h with peptide, read-out: STAT1 app. IC50) [µM] | inhibition at 80 µM (STAT3 SH2 domain; at 80 µM, mean ± s.d., three experiments) [%] | inhibition at 80 µM (STAT1 SH2 domain; at 80 µM) [%]
CC(C)(C)c1ccc2occ(/C=N/NC(=O)c3cccnc3)c(=O)c2c1 [Compound 8] | 9.7 ± 1.8 | does not significantly increase the inhibitory activity | 2.8 | up to four-fold increase | equally effective | 24 ± 4 |  | 
CCC(C)(C)c1ccc2occ(/C=N/NC(=O)c3cccnc3)c(=O)c2c1 [Compound 9] |  |  |  | did not significantly increase apoptosis; also recorded: did not increase the apoptotic rate | did not increase the apoptotic rate |  | 45 ± 5 | 36 ± 4
